Results from ChEMBL document CHEMBL3124777, “Synthesis and biological evaluation of thiazoline derivatives as new antimicrobial and anticancer agents” (Eur J Med Chem, 2014).
Converted amounts (≈) assume the structure as drawn. The source made the active and inactive calls. No cut-off for these calls is given here.

Assays:
[1] = tested on: C6; assay: Cytotoxicity against rat C6 cells after 24 hrs by MTT assay; assay type: functional, cell-based; settings: C6, 24 h
[2] = tested on: NIH3T3; assay: Cytotoxicity against mouse NIH/3T3 cells after 24 hrs by MTT assay; assay type: cell-based; settings: NIH3T3, 24 h
[3] = tested on: Fusarium solani; assay: Antimicrobial activity against Fusarium solani NRRL 13414 after 48 to 72 hrs by microbroth dilution method; assay type: functional
[4] = tested on: Escherichia coli; assay: Antimicrobial activity against Escherichia coli ATCC 25922 after 18 to 24 hrs by microbroth dilution method; assay type: functional
[5] = tested on: Aspergillus ochraceus; assay: Antimicrobial activity against Aspergillus ochraceus NRRL 3174 after 48 to 72 hrs by microbroth dilution method; assay type: functional
[6] = tested on: Trichoderma harzianum; assay: Antimicrobial activity against Trichoderma harzianum NRRL 20565 after 48 to 72 hrs by microbroth dilution method; assay type: functional
[7] = tested on: C6; assay: Cytotoxicity against rat C6 cells assessed as cell viability at 200 ug/ml after 24 hrs by MTT assay relative to control; assay type: functional; settings: C6, 24 h, read-out: Activity
[8] = tested on: Pseudomonas aeruginosa; assay: Antimicrobial activity against Pseudomonas aeruginosa […] after 18 to 24 hrs by microbroth dilution method; assay type: functional
[9] = tested on: C6; assay: Inhibition of DNA synthesis in rat C6 cells assessed as BrdU incorporation after 24 hrs by ELISA; assay type: functional, cell-based
[10] = tested on: Aspergillus parasiticus; assay: Antimicrobial activity against Aspergillus parasiticus NRRL 465 after 48 to 72 hrs by microbroth dilution method; assay type: functional
[11] = tested on: C6; assay: Cytotoxicity against rat C6 cells assessed as cell viability at 50 ug/ml after 24 hrs by MTT assay relative to control; assay type: functional; settings: C6, 24 h, read-out: Activity
[12] = tested on: C6; assay: Inhibition of DNA synthesis in rat C6 cells assessed as BrdU incorporation at IC50 after 24 hrs by ELISA; assay type: functional, cell-based
[13] = tested on: C6; assay: Cytotoxicity against rat C6 cells assessed as cell viability at 25 ug/ml after 24 hrs by MTT assay relative to control; assay type: functional; settings: C6, 24 h, read-out: Activity
[14] = tested on: C6; assay: Cytotoxicity against rat C6 cells assessed as cell viability at 100 ug/ml after 24 hrs by MTT assay relative to control; assay type: functional; settings: C6, 24 h, read-out: Activity
[15] = tested on: C6; assay: Cytotoxicity against rat C6 cells assessed as cell viability at 6 ug/ml after 24 hrs by MTT assay relative to control; assay type: functional; settings: C6, 24 h, read-out: Activity
[16] = tested on: Penicillium chrysogenum; assay: Antimicrobial activity against Penicillium chrysogenum NRRL 1951 after 48 to 72 hrs by microbroth dilution method; assay type: functional
[17] = tested on: C6; assay: Cytotoxicity against rat C6 cells assessed as cell viability at 12 ug/ml after 24 hrs by MTT assay relative to control; assay type: functional; settings: C6, 24 h, read-out: Activity
[18] = tested on: Fusarium culmorum; assay: Antimicrobial activity against wild type Fusarium culmorum after 48 to 72 hrs by microbroth dilution method; assay type: functional
[19] = tested on: Fusarium verticillioides; assay: Antimicrobial activity against Fusarium moniliforme NRRL 1866 after 48 to 72 hrs by microbroth dilution method; assay type: functional
[20] = tested on: Micrococcus luteus; assay: Antimicrobial activity against Micrococcus luteus NRLL B-4375 after 18 to 24 hrs by microbroth dilution method; assay type: functional
[21] = tested on: Listeria monocytogenes; assay: Antimicrobial activity against Listeria monocytogenes ATCC 7644 after 18 to 24 hrs by microbroth dilution method; assay type: functional
[22] = tested on: Candida albicans; assay: Antimicrobial activity against Candida albicans ATCC 22019 after 18 to 24 hrs by microbroth dilution method; assay type: functional
[23] = tested on: Staphylococcus aureus; assay: Antimicrobial activity against Staphylococcus aureus NRRL B-767 after 18 to 24 hrs by microbroth dilution method; assay type: functional
[24] = tested on: Bacillus subtilis; assay: Antimicrobial activity against Bacillus subtilis NRS-744 after 18 to 24 hrs by microbroth dilution method; assay type: functional

Molecule `O=C(CSc1nnnn1-c1ccccc1)N/N=c1/scc(-c2ccccc2)n1-c1ccccc1` has an IC50 [1] of 8.3 µg/mL (≈ 17.1 µM), an IC50 [2] of 417 µg/mL (≈ 858 µM) and an MIC [3] of 250 µg/mL (≈ 515 µM). The MIC [4] was 250 µg/mL (≈ 515 µM), the MIC [5] was 250 µg/mL (≈ 515 µM) and the MIC [6] was 125 µg/mL (≈ 257 µM). For the same molecule, the viability at 200 µg/mL [7] was 22.6%, the MIC [8] was 250 µg/mL (≈ 515 µM) and the inhibition [9] was “Dose-dependent effect”. The MIC [10] was 250 µg/mL (≈ 515 µM), the viability at 50 µg/mL [11] was 36.7% and the inhibition [12] was “Active”. For the same molecule, the viability at 25 µg/mL [13] was 42.5%, the viability at 100 µg/mL [14] was 35.8% and the viability at 6 µg/mL [15] was 52.1%. For the same molecule, the MIC [16] was 250 µg/mL (≈ 515 µM), the viability at 12 µg/mL [17] was 47.1% and the MIC [18] was 125 µg/mL (≈ 257 µM). It also gave an MIC [19] of 250 µg/mL (≈ 515 µM), an MIC [20] of 250 µg/mL (≈ 515 µM) and an MIC [21] of 250 µg/mL (≈ 515 µM). The MIC [22] was 250 µg/mL (≈ 515 µM), the MIC [23] was 250 µg/mL (≈ 515 µM) and the MIC [24] was 500 µg/mL (≈ 1030 µM).

With `Cc1nnc(SCC(=O)N/N=c2/scc(-c3ccc(F)cc3)n2-c2ccccc2)s1` the IC50 [1] was 27.3 µg/mL (≈ 59.7 µM), the IC50 [2] was 383 µg/mL (≈ 838 µM) and the MIC [3] was 250 µg/mL (≈ 546 µM). For the same molecule, the MIC [4] was 250 µg/mL (≈ 546 µM), the MIC [5] was 250 µg/mL (≈ 546 µM) and the MIC [6] was 125 µg/mL (≈ 273 µM). The viability at 200 µg/mL [7] was 26.5%, the MIC [8] was 250 µg/mL (≈ 546 µM) and the inhibition [9] was “Dose-dependent effect”. For the same molecule, the MIC [10] was 250 µg/mL (≈ 546 µM), the viability at 50 µg/mL [11] was 37.4% and the inhibition [12] was “Active”. It also gave a viability at 25 µg/mL [13] of 50.1%, a viability at 100 µg/mL [14] of 34.9% and a viability at 6 µg/mL [15] of 74.3%. It also gave an MIC [16] of 250 µg/mL (≈ 546 µM), a viability at 12 µg/mL [17] of 73.7% and an MIC [18] of 250 µg/mL (≈ 546 µM). For the same molecule, the MIC [19] was 250 µg/mL (≈ 546 µM), the MIC [20] was 250 µg/mL (≈ 546 µM) and the MIC [21] was 250 µg/mL (≈ 546 µM). The MIC [22] was 250 µg/mL (≈ 546 µM), the MIC [23] was 250 µg/mL (≈ 546 µM) and the MIC [24] was 250 µg/mL (≈ 546 µM).

Work on `Cc1nnc(SCC(=O)N/N=c2/scc(-c3ccc(Cl)cc3)n2-c2ccccc2)s1` yielded an IC50 [1] of 28 µg/mL (≈ 59.1 µM), an IC50 [2] of 253 µg/mL (≈ 534 µM) and an MIC [3] of 250 µg/mL (≈ 527 µM). It also gave an MIC [4] of 250 µg/mL (≈ 527 µM), an MIC [5] of 250 µg/mL (≈ 527 µM) and an MIC [6] of 125 µg/mL (≈ 264 µM). The viability at 200 µg/mL [7] was 29%, the MIC [8] was 250 µg/mL (≈ 527 µM) and the inhibition [9] was “Dose-dependent effect”. The MIC [10] was 250 µg/mL (≈ 527 µM), the viability at 50 µg/mL [11] was 37.9% and the inhibition [12] was “Active”. For the same molecule, the viability at 25 µg/mL [13] was 53.3%, the viability at 100 µg/mL [14] was 34.1% and the viability at 6 µg/mL [15] was 82.8%. For the same molecule, the MIC [16] was 250 µg/mL (≈ 527 µM), the viability at 12 µg/mL [17] was 76.6% and the MIC [18] was 250 µg/mL (≈ 527 µM). The MIC [19] was 250 µg/mL (≈ 527 µM), the MIC [20] was 250 µg/mL (≈ 527 µM) and the MIC [21] was 250 µg/mL (≈ 527 µM). It also gave an MIC [22] of 250 µg/mL (≈ 527 µM), an MIC [23] of 250 µg/mL (≈ 527 µM) and an MIC [24] of 250 µg/mL (≈ 527 µM).

For `COc1ccc(-c2cs/c(=N/NC(=O)CSc3nnc(C)s3)n2-c2ccccc2)cc1`, the IC50 [1] was 18.7 µg/mL (≈ 39.8 µM), the IC50 [2] was 300 µg/mL (≈ 639 µM) and the MIC [3] was 250 µg/mL (≈ 532 µM). The MIC [4] was 250 µg/mL (≈ 532 µM), the MIC [5] was 250 µg/mL (≈ 532 µM) and the MIC [6] was 125 µg/mL (≈ 266 µM). The viability at 200 µg/mL [7] was 22.2%, the MIC [8] was 250 µg/mL (≈ 532 µM) and the inhibition [9] was “Dose-dependent effect”. The MIC [10] was 250 µg/mL (≈ 532 µM), the viability at 50 µg/mL [11] was 31.5% and the inhibition [12] was “Active”. It also gave a viability at 25 µg/mL [13] of 42.6%, a viability at 100 µg/mL [14] of 25.9% and a viability at 6 µg/mL [15] of 57.9%. The MIC [16] was 250 µg/mL (≈ 532 µM), the viability at 12 µg/mL [17] was 53.6% and the MIC [18] was 250 µg/mL (≈ 532 µM). For the same molecule, the MIC [19] was 250 µg/mL (≈ 532 µM), the MIC [20] was 250 µg/mL (≈ 532 µM) and the MIC [21] was 250 µg/mL (≈ 532 µM). It also gave an MIC [22] of 250 µg/mL (≈ 532 µM), an MIC [23] of 250 µg/mL (≈ 532 µM) and an MIC [24] of 250 µg/mL (≈ 532 µM).

With `Cn1nnnc1SCC(=O)N/N=c1/scc(-c2ccc([N+](=O)[O-])cc2)n1-c1ccccc1` the IC50 [1] was greater than 200 µg/mL, the IC50 [2] was 167 µg/mL (≈ 356 µM) and the MIC [3] was 250 µg/mL (≈ 534 µM). It also gave an MIC [4] of 250 µg/mL (≈ 534 µM), an MIC [5] of 250 µg/mL (≈ 534 µM) and an MIC [6] of 125 µg/mL (≈ 267 µM). It also gave a viability at 200 µg/mL [7] of 58.6%, an MIC [8] of 250 µg/mL (≈ 534 µM) and an MIC [10] of 250 µg/mL (≈ 534 µM). For the same molecule, the viability at 50 µg/mL [11] was 69.2%, the viability at 25 µg/mL [13] was 69.3% and the viability at 100 µg/mL [14] was 64.1%. The viability at 6 µg/mL [15] was 80.4%, the MIC [16] was 250 µg/mL (≈ 534 µM) and the viability at 12 µg/mL [17] was 76.2%. The MIC [18] was 250 µg/mL (≈ 534 µM), the MIC [19] was 250 µg/mL (≈ 534 µM) and the MIC [20] was 250 µg/mL (≈ 534 µM). It also gave an MIC [21] of 250 µg/mL (≈ 534 µM), an MIC [22] of 250 µg/mL (≈ 534 µM) and an MIC [23] of 250 µg/mL (≈ 534 µM). For the same molecule, the MIC [24] was 500 µg/mL (≈ 1070 µM).
